Reference: PubChem BioAssay AID743151 (Broad Institute, 2013)
Activity calls are given as the source filed them.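 How the source made its calls: active means IC50 under 100 nM in each of the cell lines carrying a mutated TP53 gene; inactive means the rest.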

Key:
Test in all cases: viability loss in TP53-mutant tumour panel – cell-based, HeLa, COLO741, H2122, CellTiter-Glo, dry powder, dose response (AID 743151)
[1] = test system: COLO741 TP53-mutant viability, CellTiter-Glo, 48 h; details: measured here: COLO741 viability IC50
[2] = test system: H2122 TP53-mutant viability, CellTiter-Glo, 48 h; details: measured here: H2122 viability IC50
[3] = test system: HeLa TP53-mutant viability, CellTiter-Glo, 48 h

SMILES	IC50 [1] [µM]	IC50 [2] [µM]	IC50 [3]
CCN1N=C(c2ccc(N(CC)CC)cc2)[C@H](C)CC1=O	> 10	> 10	> 10 µM (inactive)
C[C@@H]1CC(=O)NN=C1c1ccc(Cl)cc1	0.0426	0.0799	0.0327 µM
O=C1CN2Cc3c(ccc(Cl)c3Cl)N=C2N1	0.012	0.0171	0.00765 µM
C[C@H]1CC(=O)NN=C1c1ccc(N2CCOCC2)c(F)c1	> 10	> 10	> 10 µM (inactive)
C[C@@H]1CC(=O)NN=C1c1ccc(N2CCOCC2)c(F)c1	0.00288	0.00317	0.00159 µM
C[C@@H]1CC(=O)NN=C1c1ccc(N2CCOCC2)cc1	0.02	0.03	0.0132 µM
C[C@@H]1CC(=O)NN=C1c1ccc(-c2cncnc2)cc1	0.0196	0.0365	0.0125 µM
CCN(CC)c1ccc(C2=NNC(=O)CC2C)cc1[N+](=O)[O-] (stereo unspecified)	0.012	0.0134	0.00665 µM
C[C@@H]1CC(=O)NN=C1c1ccc(C2CCCCC2)cc1	0.0113	0.0287	0.00727 µM
CC(=O)Nc1ccc(C2=NNC(=O)C[C@H]2C)cc1	0.00765	0.0127	0.00493 µM
C[C@@H]1CC(=O)NN=C1c1ccc(F)c(F)c1	0.0333	0.0462	0.0224 µM
COc1cc2c(cc1OC)-c1cc(=Nc3c(C)cc(C)cc3C)n(C)c(=O)n1CC2	> 10	> 10	> 10 µM (inactive)
